Where “and” joins values, the source holds several entries; their conditions need not be identical. Identical values can stand only once.
Assays:
Assay type in all cases: in vivo
[1] = tested on: Ambrosia elatior; assay: greenhouse pre-emergence treatment, AMBEL
In short: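 Damage rated on 0 to 100 scale (0 = normal growth, 100 = no emergence or total above-ground kill) after 2-4 weeks at species-dependent 10-25° C or 20-35° C. Seeds sown per species in loamy sand, ~3.0% humus, treated right after sowing with aqueous spray of single actives or 10% emulsion-concentrate mixtures, then hooded; additive expectation by Colby.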

[2] = tested on: Poa annua; assay: greenhouse post-emergence treatment, POAAN
In short: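 Visual herbicidal effect (0–100) recorded over a 2 to 4 week test period after foliar treatment at plant heights of 3 to 15 cm. Expected combination effects derived by the Colby formula from single-component effects X and Y.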

[3] = tested on: Alopecurus myosuroides; assay: greenhouse post-emergence treatment, ALOMY
In short: (§1)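 Greenhouse test in humus-containing (~3.0%) loamy sand at species-dependent temperatures of 10-25° C. or 20-35° C.; treatments applied in water. Damage rated visually after 2–4 weeks (0 = none, 100 = complete destruction or no emergence).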

[4] = tested on: Papaver rhoeas; assay: greenhouse post-emergence treatment, PAPRH
In short: (§2)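 Scale 0–100 damage rating (100 = complete destruction of above-ground parts, 0 = normal growth), read 2 to 4 weeks after post-emergence application of aqueous spray liquor to plants 3–15 cm tall.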

[5] = tested on: Lolium multiflorum; assay: greenhouse post-emergence treatment, LOLMU
In short: as §1

[6] = tested on: Polygonum convolvulus; assay: greenhouse post-emergence treatment, POLCO
In short: as §2

[7] = 20 DAT, Ex. 26 solo 62.5 gai/ha

Measured: % activity

COC(=O)c1nc(C2CC2)ncc1-c1ccc(F)cc1Cl [Ex. 26]
73%: [3]; Ex. 26 solo 125 gai/ha, 20 DAT, ALOMY (pinoxaden table)
40%: [2]; Ex. 26 solo, 125 gai/ha, 20 DAT, POAAN | [2]; Ex. 26 solo, 125 gai/ha, 21 DAT, POAAN | [3]; Ex. 26 solo 62.5 gai/ha, 21 DAT, ALOMY
25%: [5]; Ex. 26 solo, 250 gai/ha, 20 DAT, LOLMU
65% and 55%: [5]; 20 DAT, LOLMU, Ex. 26 solo 125 gai/ha
20%: [4]; 20 DAT, PAPRH, Ex. 26 solo 250 gai/ha
55% and 35%: [5]; LOLMU, Ex. 26 solo 125 gai/ha, 20 DAT
80%: [2]; 20 DAT, POAAN, Ex. 26 solo 250 gai/ha
45%: [4]; Ex. 26 solo 250 gai/ha, 20 DAT, PAPRH (pyridate table)
15%: [4]; Ex. 26 solo, 250 gai/ha, 21 DAT, PAPRH | [5]; Ex. 26 solo, 125 gai/ha, 21 DAT, LOLMU | [5]; LOLMU, 21 DAT, solo Ex. 26 125 gai/ha
10%: [5]; 21 DAT, Ex. 26 solo 125 gai/ha | [5]; Ex. 26 solo 62.5 gai/ha, 20 DAT, LOLMU (pyroxsulam table) | [5]; Ex. 26 solo 125 gai/ha, 21 DAT, LOLMU
35%: [2]; Ex. 26 solo 62.5 gai/ha, 21 DAT, POAAN | [5]; Ex. 26 solo 125 gai/ha, 20 DAT, LOLMU (pyridate table) | [5]; Ex. 26 solo 125 gai/ha, 20 DAT, LOLMU (pyroxsulam table)
30%: [2]; POAAN, 21 DAT, solo Ex. 26 62.5 gai/ha | [5]; Ex. 26 solo, 250 gai/ha, 21 DAT, LOLMU | [5]; LOLMU, 21 DAT, solo Ex. 26 250 gai/ha | [6]; 20 DAT, Ex. 26 solo 250 gai/ha | [6]; Ex. 26 solo 62.5 gai/ha, 20 DAT, POLCO
55%: [5]; 21 DAT, Ex. 26 solo 250 gai/ha | [5]; Ex. 26 solo 250 gai/ha, 20 DAT, LOLMU (pyroxsulam table)
75% and 70%: [2]; 20 DAT, POAAN, Ex. 26 solo 125 gai/ha | [3]; ALOMY, Ex. 26 solo 125 gai/ha, 20 DAT
60%: [2]; POAAN, Ex. 26 solo 250 gai/ha, 20 DAT | [5]; Ex. 26 solo 250 gai/ha, 20 DAT, LOLMU (pyridate table)
0%: [1]; 20 DAT, AMBEL, Ex. 26 solo 31.25 gai/ha | [1]; 20 DAT, AMBEL, Ex. 26 solo 62.5 gai/ha | [1]; 20 DAT, AMBEL, Ex. 26 solo 125 gai/ha | [1]; 20 DAT, AMBEL, Ex. 26 solo 250 gai/ha | [1]; 20 DAT, Ex. 26 solo 31.25 gai/ha | [1]; [7] | [1]; 20 DAT, Ex. 26 solo 125 gai/ha | [1]; 21 DAT, AMBEL, Ex. 26 solo 250 gai/ha | [1]; AMBEL, 20 DAT, solo Ex. 26 62.5 gai/ha | [1]; AMBEL, 20 DAT, solo Ex. 26 125 gai/ha | [1]; AMBEL, Ex. 26 solo 31.25 gai/ha, 20 DAT | [1]; AMBEL, Ex. 26 solo 62.5 gai/ha, 20 DAT | [1]; AMBEL, Ex. 26 solo 125 gai/ha, 20 DAT | [1]; Ex. 26 solo 250 gai/ha, 21 DAT, AMBEL | [1]; Ex. 26 solo, 31.25 gai/ha, 20 DAT, AMBEL | [1]; Ex. 26 solo, 62.5 gai/ha, 20 DAT, AMBEL | [1]; Ex. 26 solo, 125 gai/ha, 20 DAT, AMBEL | [4]; [7] | [4]; 20 DAT, Ex. 26 solo 125 gai/ha | [4]; 20 DAT, Ex. 26 solo 250 gai/ha | [4]; 20 DAT, PAPRH, Ex. 26 solo 125 gai/ha | [4]; 21 DAT, Ex. 26 solo 125 gai/ha | [4]; 21 DAT, Ex. 26 solo 250 gai/ha | [4]; Ex. 26 solo 62.5 gai/ha, 20 DAT, PAPRH (pyridate table) | [4]; Ex. 26 solo 62.5 gai/ha, 20 DAT, PAPRH (pyroxsulam table) | [4]; Ex. 26 solo 62.5 gai/ha, 21 DAT, PAPRH | [4]; Ex. 26 solo 125 gai/ha, 20 DAT, PAPRH (pyridate table) | [4]; Ex. 26 solo 125 gai/ha, 20 DAT, PAPRH (pyroxsulam table) | [4]; Ex. 26 solo 250 gai/ha, 20 DAT, PAPRH (pyroxsulam table) | [4]; Ex. 26 solo 250 gai/ha, 21 DAT, PAPRH | [4]; Ex. 26 solo, 125 gai/ha, 21 DAT, PAPRH | [4]; PAPRH, Ex. 26 solo 62.5 gai/ha, 20 DAT | [4]; PAPRH, Ex. 26 solo 125 gai/ha, 20 DAT | [5]; [7] | [5]; Ex. 26 solo 62.5 gai/ha, 20 DAT, LOLMU (pyridate table) | [5]; Ex. 26 solo 62.5 gai/ha, 21 DAT, LOLMU | [5]; Ex. 26 solo, 125 gai/ha, 20 DAT, LOLMU | [5]; LOLMU, 21 DAT, solo Ex. 26 62.5 gai/ha | [6]; 21 DAT, Ex. 26 solo 125 gai/ha | [6]; Ex. 26 solo 62.5 gai/ha, 21 DAT, POLCO | [6]; Ex. 26 solo 125 gai/ha, 21 DAT, POLCO
70%: [2]; 20 DAT, Ex. 26 solo 250 gai/ha | [2]; Ex. 26 solo, 250 gai/ha, 20 DAT, POAAN | [2]; POAAN, Ex. 26 solo 125 gai/ha, 20 DAT | [3]; Ex. 26 solo 125 gai/ha, 20 DAT, ALOMY (pyridate table)
90%: [6]; Ex. 26 solo 125 gai/ha, 20 DAT, POLCO
65%: [2]; 21 DAT, Ex. 26 solo 125 gai/ha | [3]; 20 DAT, ALOMY, Ex. 26 solo 62.5 gai/ha | [3]; 21 DAT, Ex. 26 solo 125 gai/ha | [5]; 20 DAT, LOLMU, Ex. 26 solo 250 gai/ha | [5]; LOLMU, Ex. 26 solo 250 gai/ha, 20 DAT | [6]; 20 DAT, POLCO, Ex. 26 solo 62.5 gai/ha
85% and 80%: [6]; 20 DAT, POLCO, Ex. 26 solo 125 gai/ha
75%: [2]; 21 DAT, Ex. 26 solo 250 gai/ha | [3]; 20 DAT, ALOMY, Ex. 26 solo 125 gai/ha | [3]; 20 DAT, ALOMY, Ex. 26 solo 250 gai/ha | [3]; 21 DAT, Ex. 26 solo 250 gai/ha | [3]; ALOMY, Ex. 26 solo 250 gai/ha, 20 DAT | [3]; Ex. 26 solo 250 gai/ha, 20 DAT, ALOMY (pyridate table)

— US10966426B2, “Herbicidal compositions comprising phenylpyrimidines” (BASF SE, priority 2016, dated 2021)
